Experimental data taken from ChEMBL document CHEMBL1157471, “Dopamine/serotonin receptor ligands. Part 17: a cross-target SAR approach: affinities of azecine-styled ligands for 5-HT(2A) versus D1 and D2 receptors” (Bioorg Med Chem Lett, 2008).

Key:
D(2) dopamine receptor = D(2) dopamine receptor (Homo sapiens, UniProt P14416); test: Displacement […] from human cloned dopamine D2L receptor
[1] = target: 5-hydroxytryptamine receptor 2A (Sus scrofa, UniProt P50129); test: (§1) Antagonist activity at serotonin 5HT2A receptor assessed as effect on 5HT-induced isometric contractile force in isolated rings of pig coronary artery; type: functional, tissue-based; conditions: read-out: pA2 (converted)
D(1A) dopamine receptor = D(1A) dopamine receptor (Homo sapiens, UniProt P21728); test: Displacement […] from human cloned dopamine D1 receptor
[2] = target: 5-hydroxytryptamine receptor 2A (Sus scrofa) (UniProt P50129); test: as §1; type: functional, tissue-based
5-hydroxytryptamine receptor 2A (Sus scrofa), sequence (P50129 whole entry): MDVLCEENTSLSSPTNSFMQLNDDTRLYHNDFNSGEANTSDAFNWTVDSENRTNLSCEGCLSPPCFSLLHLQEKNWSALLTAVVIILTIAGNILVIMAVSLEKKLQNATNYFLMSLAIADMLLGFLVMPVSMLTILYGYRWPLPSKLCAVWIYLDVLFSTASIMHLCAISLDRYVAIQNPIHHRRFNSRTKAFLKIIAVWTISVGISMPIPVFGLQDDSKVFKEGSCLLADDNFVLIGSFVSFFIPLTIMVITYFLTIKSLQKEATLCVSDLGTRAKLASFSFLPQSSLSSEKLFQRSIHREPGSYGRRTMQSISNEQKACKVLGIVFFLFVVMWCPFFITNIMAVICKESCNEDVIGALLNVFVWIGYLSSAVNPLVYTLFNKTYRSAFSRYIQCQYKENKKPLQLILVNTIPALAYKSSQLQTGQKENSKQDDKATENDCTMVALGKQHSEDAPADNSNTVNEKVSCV

5-hydroxytryptamine receptor 2A, sequence (P50129 whole entry): as above
D(1A) dopamine receptor, sequence (P21728 whole entry): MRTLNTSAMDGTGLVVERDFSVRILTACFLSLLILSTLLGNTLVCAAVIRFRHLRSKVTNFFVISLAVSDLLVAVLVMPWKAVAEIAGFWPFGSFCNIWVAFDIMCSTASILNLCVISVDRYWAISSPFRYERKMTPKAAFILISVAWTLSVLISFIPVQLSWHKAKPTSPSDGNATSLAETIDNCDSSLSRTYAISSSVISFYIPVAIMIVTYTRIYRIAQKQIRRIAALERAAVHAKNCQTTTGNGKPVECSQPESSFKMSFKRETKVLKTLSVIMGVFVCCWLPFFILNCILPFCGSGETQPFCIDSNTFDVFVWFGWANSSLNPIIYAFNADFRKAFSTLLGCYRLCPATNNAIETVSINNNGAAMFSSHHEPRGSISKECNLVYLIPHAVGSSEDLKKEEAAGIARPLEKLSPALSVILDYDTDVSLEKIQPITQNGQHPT
D(2) dopamine receptor, sequence (P14416 whole entry): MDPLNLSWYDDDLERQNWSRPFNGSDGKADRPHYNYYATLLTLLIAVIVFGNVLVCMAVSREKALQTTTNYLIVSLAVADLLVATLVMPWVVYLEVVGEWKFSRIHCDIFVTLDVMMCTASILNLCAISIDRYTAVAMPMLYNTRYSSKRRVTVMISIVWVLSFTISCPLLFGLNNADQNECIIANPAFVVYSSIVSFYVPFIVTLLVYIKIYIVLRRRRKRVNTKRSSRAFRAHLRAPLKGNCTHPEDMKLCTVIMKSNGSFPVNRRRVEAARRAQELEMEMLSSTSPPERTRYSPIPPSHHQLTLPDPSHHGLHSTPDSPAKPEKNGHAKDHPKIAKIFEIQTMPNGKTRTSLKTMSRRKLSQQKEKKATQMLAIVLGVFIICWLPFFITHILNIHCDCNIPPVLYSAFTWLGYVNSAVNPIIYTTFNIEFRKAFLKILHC

| SMILES | Ki (D(2) dopamine receptor) [nM] | Kb [1] [nM] | Ki (D(1A) dopamine receptor) [nM] | pD2 [2] |
| --- | --- | --- | --- | --- |
| CN1CCCc2ccccc2Cc2ccc(O)cc2CC1 | 41.7 | 2.14 | 2.67 | – |
| CN1CCc2ccccc2Cc2ccc(O)cc2CC1 | – | 0.646 | – | – |
| COc1ccc2c(c1)CCN(C)CCCc1ccccc1C2 | – | 3.39 | 21.9 | – |
| COc1ccc2c(c1)CCCN(C)CCc1ccccc1C2 | 24.5 | 5.75 | 28.2 | – |
| COc1ccc2c(c1)CCN(C)CCc1ccccc1C2 | – | 2.04 | 22.9 | – |
| O=C(c1ccc(F)cc1)C1CCN(CCn2c(=O)[nH]c3ccccc3c2=O)CC1 [KETANSERIN] | – | 1.32 | – | – |
| CN1CCCc2ccccc2Cc2[nH]c3ccccc3c2CC1 | 13.5 | – | 2.04 | 9.77 |
| CN1CCc2ccccc2Cc2ccc(O)c(Cl)c2CC1 | 3.55 | 0.891 | 0.813 | – |
| Oc1ccc2c(c1)CCNCCc1ccccc1C2 | 389 | 61.7 | 63.1 | – |
| CN1CCc2ccccc2Cc2[nH]c3ccccc3c2CC1 | 41.7 | – | 1.86 | 9.79 |
| CN1CCCc2c([nH]c3ccccc23)Cc2ccccc2CC1 | 115 | 3.8 | 158 | – |
| CN1CCc2ccccc2Cc2[nH]c3ccc(O)cc3c2CC1 | 43.7 | – | – | 9.97 |
| CCN1CCc2ccccc2Cc2ccc(O)cc2CC1 | 77.6 | 3.98 | 3.72 | – |
